Results on 6 compounds are retold here after ChEMBL document CHEMBL3526027, “Pharmacokinetics, metabolism, and excretion of the antidiabetic agent ertugliflozin (PF-04971729) in healthy male subjects” (Drug Metab Dispos, 2013).

For data set [1], the system named is Plasma. Description: Drug metabolism in healthy human plasma treated with [14C]-ertugliflozin at 25 mg, po by HPLC-radiocardiogram analysis. The data set is classed as ADME, organism-based. As to conditions: in vivo.
Data set [2] deals with Plasma. Description: Drug level in beagle dog plasma treated with [14C]-ertugliflozin at 10 mg/kg, po. In kind it is ADME, organism-based, Canis lupus familiaris. Further details: dose 10 mg/kg, route oral. The following applies: in vivo.
In data set [3] the test system is Homo sapiens. Description: Total drug excretion in healthy human treated with [14C]-ertugliflozin at 25 mg, po by HPLC-radiocardiogram analysis. The data set is classed as ADME, organism-based. As to conditions: in vivo.
Data set [4] in a line: Drug excretion in healthy human urine treated with [14C]-ertugliflozin at 25 mg, po by HPLC-radiocardiogram analysis. The data set is classed as ADME, organism-based. As to conditions: in vivo.
Data set [5] deals with Plasma. Description: Drug level in Sprague-Dawley rat plasma treated with [14C]-ertugliflozin at 25 mg/kg, po. In kind it is ADME, organism-based. Also noted: dose 25 mg/kg, route oral. The following applies: in vivo.
In data set [6] the test system is Liver microsome. Description: Metabolic stability in human liver microsomes assessed as retention time treated with 10 µM ertugliflozin by HPLC analysis. (In general: Liver microsomes are vesicles of endoplasmic reticulum, rich in cytochrome P450 enzymes.)
The nature of data set [7]: Drug recovery in beagle dog feces treated with [14C]-ertugliflozin at 10 mg/kg, po. The data set is classed as ADME, organism-based, Canis lupus familiaris. Further details: dose 10 mg/kg, route oral. The following applies: in vivo.
A short description of data set [8]: Drug excretion in healthy human feces treated with [14C]-ertugliflozin at 25 mg, po by HPLC-radiocardiogram analysis. In kind it is ADME, organism-based. As to conditions: in vivo.
The nature of data set [9]: Drug recovery in Sprague-Dawley rat feces treated with [14C]-ertugliflozin at 25 mg/kg, po. Further details: dose 25 mg/kg, route oral. The following applies: in vivo. The data set is classed as ADME, organism-based.
A short description of data set [10]: Drug level in bile duct-cannulated dog bile treated with [14C]-ertugliflozin at 10 mg/kg, po. As to conditions: in vivo. Also noted: dose 10 mg/kg, route oral. The data set is classed as ADME, organism-based, Canis lupus familiaris.
The nature of data set [11]: Drug level in bile duct-cannulated rat bile treated with [14C]-ertugliflozin at 25 mg/kg, po. Further details: dose 25 mg/kg, route oral. The data set is classed as ADME, organism-based. As to conditions: in vivo.
Data set [12] can be described thus: Drug metabolism in healthy human plasma at 25 mg, po by HPLC-radiocardiogram analysis. The data set is classed as ADME, organism-based. As to conditions: read-out: Drug metabolism.
Data set [13] can be described thus: Oral bioavailability in Sprague-Dawley rat at 2 mg/kg. The data set is classed as ADME, organism-based. The following applies: in vivo.
A short description of data set [14]: Oral bioavailability in beagle dog at 2 mg/kg. The data set is classed as ADME, organism-based, Canis lupus familiaris. The following applies: in vivo.
Data set [15] is described as follows: Terminal half life in healthy human at 25 mg, po. The data set is classed as ADME, organism-based. The following applies: in vivo, read-out: beta t1/2 (converted).
The nature of data set [16]: Total drug excretion in healthy human at 25 mg, po by HPLC-radiocardiogram analysis. The data set is classed as ADME, organism-based. The following applies: in vivo, read-out: Drug excretion.
The nature of data set [17]: Drug level in bile duct-cannulated dog bile at 10 mg/kg, po. The data set is classed as ADME, organism-based, Canis lupus familiaris. The following applies: read-out: Drug uptake. Also noted: dose 10 mg/kg, route oral.
Data set [18] is described as follows: Drug level in bile duct-cannulated rat bile at 25 mg/kg, po. In kind it is ADME, organism-based. Also noted: dose 25 mg/kg, route oral. The following applies: read-out: Drug uptake.
Data set [19] in a line: Tmax in healthy human at 25 mg, po. As to conditions: in vivo. In kind it is ADME, organism-based.
Data set [20] is described as follows: Terminal elimination half life in human at 0.5 to 300 mg, po. The data set is classed as ADME, organism-based. The following applies: in vivo, read-out: beta t1/2 (converted).
The nature of data set [21]: AUC (0 to last) in healthy human at 25 mg, po. The following applies: plasma. Also noted: dose 25 mg, time 0 - last, route oral. In kind it is ADME, organism-based.
The test system of data set [22] is Homo sapiens. Description: AUC (0 to infinity) in healthy human at 25 mg, po. The data set is classed as ADME, organism-based, Plasma. Further details: dose 25 mg, time infinity, route oral. As to conditions: in vivo.
Data set [23] can be described thus: Cmax in healthy human at 25 mg, po. In kind it is ADME, organism-based. Also noted: dose 25 mg, route oral. As to conditions: in vivo.
For data set [24], the system named is Liver microsome. Description: Metabolic stability in human liver microsomes assessed as retention time at 10 uM by HPLC analysis. The following applies: in vitro.
The subject of data set [25] is Plasma. Description: Drug metabolism in beagle dog plasma assessed as ertugliflozin-4-O-beta-glucuronide level at 10 mg/kg, po. As to conditions: in vivo. The data set is classed as ADME, organism-based, Canis lupus familiaris. Also noted: dose 10 mg/kg, route oral.
Data set [26] is described as follows: Drug recovery in beagle dog feces assessed as ertugliflozin-4-O-beta-glucuronide level at 10 mg/kg, po. Also noted: dose 10 mg/kg, route oral. In kind it is ADME, organism-based, Canis lupus familiaris. As to conditions: in vivo.
For data set [27], the system named is Plasma. Description: Drug metabolism in Sprague-Dawley rat plasma assessed as ertugliflozin-3-O-beta-glucuronide level at 25 mg/kg, po. The data set is classed as ADME, organism-based. Also noted: dose 25 mg/kg, route oral. As to conditions: in vivo.
In data set [28] the test system is Plasma. Description: Drug metabolism in beagle dog plasma assessed as ertugliflozin-3-O-beta-glucuronide level at 10 mg/kg, po. The data set is classed as ADME, organism-based, Canis lupus familiaris. Also noted: dose 10 mg/kg, route oral. The following applies: in vivo.
Data set [29] concerns Plasma. Description: Drug metabolism in Sprague-Dawley rat plasma assessed as ertugliflozin-4-O-beta-glucuronide level at 25 mg/kg, po. The data set is classed as ADME, organism-based. Also noted: dose 25 mg/kg, route oral. The following applies: in vivo.

Take `CCOc1ccc(Cc2cc([C@]34OC[C@](CO)(O3)[C@@H](O)[C@H](O)[C@H]4O[C@@H]3O[C@H](C(=O)O)[C@@H](O)[C@H](O)[C@H]3O)ccc2Cl)cc1`: the Drug metabolism was 12.2% in the data set with Plasma [1], “metabolite_detected” in the data set on Plasma [2] and “metabolite_detected” in the data set with Plasma [5]. Moreover, the Drug excretion (in the data set on Homo sapiens [3]; in data set [4]) was 5.7% in each case. For the same compound, in the data set with Liver microsome [6], the Retention_time amounted to 29.4 min.

For the compound `OC[C@@]12CO[C@@](c3ccc(Cl)c(Cc4ccc(O)cc4)c3)(O1)[C@H](O)[C@@H](O)[C@@H]2O`, the results for the Drug recovery in data set [7] and in data set [9] were 8.7% and 26.7%, respectively. The Drug metabolism with Plasma [1] was determined as 1.3%. Also, the values for the Drug excretion (in data set [8]; with Homo sapiens [3]; in data set [4]) were 1%, 1.4% and 0.4%, respectively. Moreover, the Retention_time in the data set with Liver microsome [6] worked out at 27.2 min.

For the compound `CCOc1ccc(Cc2cc([C@]34OC[C@](CO)(O3)[C@@H](O)[C@H](O[C@@H]3O[C@H](C(=O)O)[C@@H](O)[C@H](O)[C@H]3O)[C@H]4O)ccc2Cl)cc1`, the values for the Drug metabolism in the data set with Plasma [1], in the data set on Plasma [2] and with Plasma [5] were 24.1%, “metabolite_detected” and “metabolite_detected”, respectively. Besides, the Drug uptake amounted to 39.2% in [10] and 16.5% in data set [11]. Moreover, the Drug excretion (with Homo sapiens [3]; in [4]) was 31.7% throughout. Further, the Retention_time in the data set on Liver microsome [6] was found to be 34.3 min.

`CCOc1ccc(Cc2cc([C@]34OC[C@](CO)(O3)[C@@H](O)[C@H](O)[C@H]4O)ccc2Cl)cc1` [ERTUGLIFLOZIN]: in data set [12], the metabolised is 49.9%. For the same compound, the bioavailability in data set [13] is 69%; in [14] it was 94%. In addition, the half-life in data set [15] is 16.9 h; in data set [20], 11 h. In addition, the dose excreted in data set [16] stood at 35.3%; in [17], 9.6%; in data set [18], 2.4%. The Tmax in data set [19] was 1 h. The compound further showed an AUC(0-t) in [21] of 2790 ng·h/mL. In addition, in the data set on Homo sapiens [22], the AUC was found to be 2800 ng·h/mL. In data set [23], this compound came in with a Cmax of 490 ng/mL. Besides, in the data set on Liver microsome [24], the Retention_time is listed as 36.4 min.

In data set [7], `CCOc1ccc(C(O)c2cc([C@]34OC[C@](CO)(O3)[C@@H](O)[C@H](O)[C@H]4O)ccc2Cl)cc1` (mixture of isomers) showed a Drug recovery of 7.1%. This compound gave a Drug metabolism in the data set on Plasma [1] of 2.5%. For the same compound, the Drug excretion in data set [8] stood at 1.7%; in the data set with Homo sapiens [3], 2.4%; in [4], 0.7%. Moreover, in the data set with Liver microsome [6], the Retention_time was determined as 27.9 min.

For `CCO[14c]1[14cH][14cH][14c](Cc2cc([C@]34OC[C@](CO)(O3)[C@@H](O)[C@H](O)[C@H]4O)ccc2Cl)[14cH][14cH]1.O=C1CC[C@@H](C(=O)O)N1`, the Drug metabolism entry in the data set on Plasma [25], in the data set with Plasma [27], in the data set with Plasma [28] and in the data set with Plasma [29] was “metabolite_detected” throughout. The Drug recovery entry in data set [26] is “metabolite_not_detected”. For the same compound, the Retention_time in the data set with Liver microsome [24] is listed as 36.4 min.

What is called bioavailability is dose-corrected exposure relative to a reference, in per cent. As usually defined, the Tmax is the time from dosing to the highest level. Usually AUC(0-t) stands for exposure summed from dosing to a finite time, without extrapolation to infinity. Read a high AUC(0-t) as more exposure. A word on the AUC: it is concentration integrated over time. Higher therefore signals high exposure. One may read the Cmax as the maximum level reached in the sampled fluid or tissue.
